# US20080241101A1, “Skin vitalizing composition for external use anti-aging preparation” (Shiseido Company, Ltd., priority 2002, published 2008)
# Columns and labels:
# [1] = tested on: artificial skin (human dermal fibroblast collagen gel with human foreskin-derived epidermal keratinocytes); assay: Artificial skin culture with additives in the medium, H&E and type IV / type VII collagen immunostaining (Example 1); type: cell-based; settings: for staining of type IV and type VII collagen: cytokine (1 ng/ml interleukin-1β, 1 ng/ml TGF-α or 100 ng/ml PDGF) combined with 10 μg/ml aprotinin and 10 μM compound A
# Method: (§1) Collagen gel was obtained by preparing 10 ml of a human dermal fibroblasts (0.3-1×10^5 cell/ml)-suspended collagen solution (using I-AC collagen manufactured by Koken Co., Ltd.) on ice, followed by gelling the collagen in a 60 mm Petri dish at 37° C. The gel was then peeled from the bottom of the dish, the collagen gel was placed on metal, and a glass ring (12 mm inner diameter) was placed over the gel. A 0.4 ml portion of a human foreskin-derived epidermal keratinocyte (1×10^6/ml) suspension (KGM-DMEM (1:1) mixed medium containing 5% fetal bovine serum) was poured into the glass ring while avoiding leakage. The keratinocytes were allowed to adhere in a CO2 incubator overnight, and the ring was removed on the following day. The medium was filled in up to the border of the epidermal layer, and culturing was continued while exposing the epidermal layer to the air, to prepare a multilayered skin model with epidermis having a horny layer.
# From the 4th day after seeding the epidermal cells, the medium was replaced with medium containing (1) no compound (−compound A), (2) 10 uM of compound A (+compound A), (3) 10 μM of compound A and 10 μg/ml of aprotinin (+compound A+aprotinin), (4) 10 μM of compound A and 1 ng/ml of interleukin-1β (+compound A+IL-1), (5) 10 μM of compound A, 1 ng/ml of interleukin-1β and 10 μg/ml of aprotinin (+compound A+IL-1+aprotinin), (6) 10 μM of compound A and 1 ng/ml of TFG-α (+compound A+TGFα), (7) 10 μM of compound A, 1 ng/ml of TGF-α and 10 μg/ml aprotinin (+compound A, +TGFα+aprotinin), (8) 10 μM of compound A and 100 ng/ml PDGF (+compound A+PDGF) and (9) 10 μm of compound A, 100 ng/ml PDGF and 10 μg/ml of aprotinin (+compound A+PDGF +aprotinin), and every 2-3 days thereafter, the medium was exchanged with a medium containing the same types and same concentrations of […], extracellular matrix production accelerator (cytokines) and serine protease inhibitor, after which culturing was performed for 2 weeks.
# The formed artificial skin was stained with hematoxylin and eosin (H&E) and immunostaining (using anti-type IV collagen antibody and anti-type VII collagen antibody).
# [2] = tested on: artificial skin basement membrane; assay: Transmission electron microscopy of basement membrane structure directly under the epidermis of artificial skin (Example 1); type: cell-based, human
# Method: as §1, with “layer. […]” for “layer.”
# [3] = cytokine (1 ng/ml interleukin-1β, 1 ng/ml TGF-α or 100 ng/ml PDGF) together with 10 μM compound A
Compound,staining of type IV and type VII collagen [1],"staining of type VII collagen [1, 3]",further results
"COc1ccc(S(=O)(=O)N(Cc2cccnc2)C(C(=O)NO)C(C)C)cc1.Cl (centres unmarked) [compound A, reference compound]",,,"staining of type VII collagen directly under the basal keratinocytes ([1]; 10 μM compound A alone in medium, 2 weeks culture, versus no-addition control): weak but definite staining of type VII collagen; basement membrane structure directly under the epidermis (transmission electron microscope) ([2]; 10 μM compound A alone): induced formation of the basement membrane"
aprotinin,,,"staining of type VII collagen ([1]; 10 μg/ml aprotinin added in addition to 10 μM compound A, 2 weeks culture): further increased; basement membrane structure directly under the epidermis (transmission electron microscope) ([2]; 10 μg/ml aprotinin added with 10 μM compound A): increased the electron density and accentuated the continuity of the basement membrane"
"interleukin 1 (IL-1): matrix protein production-increasing cytokine, interleukin-1β","clearly concentrated directly under the basal keratinocytes, giving a sharp stained image",particularly accentuated,
transforming growth factor-α (TGF-α): matrix protein production-increasing cytokine,"clearly concentrated directly under the basal keratinocytes, giving a sharp stained image",particularly accentuated,
